In patent US20260132132A1, “3A,4,5,6-TETRAHYDRO-1 H-PYRAZOLO[3,4-C]PYRIDIN-7(7AH)-ONE DERIVATIVES AS FACTOR XIIA INHIBITORS” (KALVISTA PHARMACEUTICALS LIMITED, priority 2022, published 2026):
pIC50: −log10 of the molar value.

These compounds were tested against T1, Human Factor XIIa (hFXIIa) (Homo sapiens, UniProt P00748) (assay: Determination of Human Factor XIIa (hFXIIa) inhibition, fluorogenic substrate IC50 assay). Conditions: fluorogenic substrate H-DPro-Phe-Arg-AFC at Km, 25° C., read-out: Human FXIIa IC50.
T1 construct: purchased Enzyme Research Laboratories
T1 sequence (P00748 373-615 limits assumed): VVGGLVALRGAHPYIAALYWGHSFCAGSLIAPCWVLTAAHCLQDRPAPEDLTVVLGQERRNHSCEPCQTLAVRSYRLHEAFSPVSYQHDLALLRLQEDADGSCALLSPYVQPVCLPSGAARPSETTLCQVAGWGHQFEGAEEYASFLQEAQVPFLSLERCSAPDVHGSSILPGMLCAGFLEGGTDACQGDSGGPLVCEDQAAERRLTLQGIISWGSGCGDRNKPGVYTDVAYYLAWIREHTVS
T1 sequence (P00748 20-372 partner limits assumed): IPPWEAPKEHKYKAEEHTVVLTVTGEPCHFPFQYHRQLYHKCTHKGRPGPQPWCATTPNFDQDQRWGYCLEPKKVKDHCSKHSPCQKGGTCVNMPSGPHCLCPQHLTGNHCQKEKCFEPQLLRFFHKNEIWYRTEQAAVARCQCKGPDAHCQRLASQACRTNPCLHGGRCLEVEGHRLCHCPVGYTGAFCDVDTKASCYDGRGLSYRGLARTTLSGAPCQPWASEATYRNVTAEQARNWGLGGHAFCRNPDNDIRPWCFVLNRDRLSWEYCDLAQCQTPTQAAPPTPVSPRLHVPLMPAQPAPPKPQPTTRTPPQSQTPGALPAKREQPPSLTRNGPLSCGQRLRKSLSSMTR
Type: biochemical
Procedure: Determination of Human Factor XIIa (hFXIIa) inhibition
The Km for the cleavage of the substrate by hFXIIa was determined by standard transformation of the Michaelis-Menten equation, with subsequent inhibition assays performed at substrate Km concentration.
`Cc1ccncc1CNC(=O)c1nn(-c2cccc(Cl)c2)c2c1CCN(c1ccc3c(c1)C(=O)NCC3)C2=O` [Example 1240, 1-(3-chlorophenyl)-N-((4-methylpyridin-3-yl)methyl)-7-oxo-6-(1-oxo-1,2,3,4-tetrahydroisoquinolin-7-yl)-4,5,6,7-tetrahydro-1H-pyrazolo[3,4-c]pyridine-3-carboxamide] was tested, and the pIC50 was 6.00 to 6.52.
`Cc1cc(CNC(=O)c2nn(-c3cccc(Cl)c3)c3c2CCN(c2ccc4c(c2)N(C)C(=O)CCC4)C3=O)nn1C` [Example 1241, 1-(3-chlorophenyl)-N-((1,5-dimethyl-1H-pyrazol-3-yl)methyl)-6-(1-methyl-2-oxo-2,3,4,5-tetrahydro-1H-benzo[b]azepin-8-yl)-7-oxo-4,5,6,7-tetrahydro-1H-pyrazolo[3,4-c]pyridine-3-carboxamide] gave a pIC50 of 5.52 to 6.00.
Work on `CN1C(=O)CCCc2ccc(N3CCc4c(C(=O)NCC5CC5)nn(-c5cccc(Cl)c5)c4C3=O)cc21` [Example 1242, 1-(3-chlorophenyl)-N-(cyclopropylmethyl)-6-(1-methyl-2-oxo-2,3,4,5-tetrahydro-1H-benzo[b]azepin-8-yl)-7-oxo-4,5,6,7-tetrahydro-1H-pyrazolo[3,4-c]pyridine-3-carboxamide] yielded a pIC50 of 5.00 to 5.52.
`O=C(NCC1CC1)c1nn(-c2cccc(Cl)c2)c2c1CCN(c1cccc(CN3CCC(F)C3)c1)C2=O` (stereo not drawn) [Example 1243, 1-(3-chlorophenyl)-N-(cyclopropylmethyl)-6-(3-((3-fluoropyrrolidin-1-yl)methyl)phenyl)-7-oxo-4,5,6,7-tetrahydro-1H-pyrazolo[3,4-c]pyridine-3-carboxamide] showed a pIC50 of 5.52 to 6.00.
With `Cc1ccc(N2CCc3c(C(=O)NCC4CC4)nn(-c4cccc(Cl)c4)c3C2=O)cc1C(=O)N(C)C` [Example 1244, 1-(3-chlorophenyl)-N-(cyclopropylmethyl)-6-(3-(dimethylcarbamoyl)-4-methylphenyl)-7-oxo-4,5,6,7-tetrahydro-1H-pyrazolo[3,4-c]pyridine-3-carboxamide] the pIC50 was 5.00 to 5.52.
`CN1CCc2ccc(N3CCc4c(C(=O)NC[C@H]5COCCO5)nn(-c5cccc(Cl)c5)c4C3=O)cc2C1=O` [Example 1246, (S)-N-((1,4-dioxan-2-yl)methyl)-1-(3-chlorophenyl)-6-(2-methyl-1-oxo-1,2,3,4-tetrahydroisoquinolin-7-yl)-7-oxo-4,5,6,7-tetrahydro-1H-pyrazolo[3,4-c]pyridine-3-carboxamide] showed a pIC50 of 6.00 to 6.52.
Work on `CN1CCc2ccc(N3CCc4c(C(=O)NC[C@@H]5COCCO5)nn(-c5cccc(Cl)c5)c4C3=O)cc2C1=O` [Example 1249, (R)-N-((1,4-dioxan-2-yl)methyl)-1-(3-chlorophenyl)-6-(2-methyl-1-oxo-1,2,3,4-tetrahydroisoquinolin-7-yl)-7-oxo-4,5,6,7-tetrahydro-1H-pyrazolo[3,4-c]pyridine-3-carboxamide] yielded a pIC50 of 6.00 to 6.52.
`CN1CCc2ccc(N3CCc4c(C(=O)NC5COCC5CO)nn(-c5cccc(Cl)c5)c4C3=O)cc2C1=O` (stereo not drawn) [Example 1251, 1-(3-chlorophenyl)-N-(4-(hydroxymethyl)tetrahydrofuran-3-yl)-6-(2-methyl-1-oxo-1,2,3,4-tetrahydroisoquinolin-7-yl)-7-oxo-4,5,6,7-tetrahydro-1H-pyrazolo[3,4-c]pyridine-3-carboxamide] gave a pIC50 of 6.00 to 6.52.
With `Cc1cc(CNC(=O)c2nn(-c3cccc(Cl)c3)c3c2CCN(c2ccc4c(c2)C(=O)N(CCO)CC4)C3=O)n[nH]1` [Example 1255, 1-(3-chlorophenyl)-6-(2-(2-hydroxyethyl)-1-oxo-1,2,3,4-tetrahydroisoquinolin-7-yl)-N-((5-methyl-1H-pyrazol-3-yl)methyl)-7-oxo-4,5,6,7-tetrahydro-1H-pyrazolo[3,4-c]pyridine-3-carboxamide] the pIC50 was 6.52 to 7.00.
With `O=C(NCc1cc(C2CC2)[nH]n1)c1nn(-c2cccc(Cl)c2)c2c1CCN(c1ccc3c(c1)C(=O)N(CCO)CC3)C2=O` [Example 1259, 1-(3-chlorophenyl)-N-((5-cyclopropyl-1H-pyrazol-3-yl)methyl)-6-(2-(2-hydroxyethyl)-1-oxo-1,2,3,4-tetrahydroisoquinolin-7-yl)-7-oxo-4,5,6,7-tetrahydro-1H-pyrazolo[3,4-c]pyridine-3-carboxamide] the pIC50 was 6.52 to 7.00.
In the case of `O=C(NCC1CC1)c1nn(-c2cccc(Cl)c2)c2c1CCN(c1cccc(C(=O)N3CCCC3)c1)C2=O` [Example 1263, 1-(3-chlorophenyl)-N-(cyclopropylmethyl)-7-oxo-6-(3-(pyrrolidine-1-carbonyl)phenyl)-4,5,6,7-tetrahydro-1H-pyrazolo[3,4-c]pyridine-3-carboxamide], the pIC50 was 4.40 to 5.00.
`Cc1n[nH]c(C)c1CNC(=O)c1nn(-c2cccc(Cl)c2)c2c1CCN(c1ccc3c(c1)C(=O)N(C)CC3)C2=O` [Example 1268, 1-(3-chlorophenyl)-N-((3,5-dimethyl-1H-pyrazol-4-yl)methyl)-6-(2-methyl-1-oxo-1,2,3,4-tetrahydroisoquinolin-7-yl)-7-oxo-4,5,6,7-tetrahydro-1H-pyrazolo[3,4-c]pyridine-3-carboxamide] gave a pIC50 of 6.00 to 6.52.
Work on `CC(=O)N(C)c1cccc(N2CCc3c(C(=O)NCC4CC4)nn(-c4cccc(Cl)c4)c3C2=O)c1` [Example 1269, 1-(3-chlorophenyl)-N-(cyclopropylmethyl)-6-(3-(N-methylacetamido)phenyl)-7-oxo-4,5,6,7-tetrahydro-1H-pyrazolo[3,4-c]pyridine-3-carboxamide] yielded a pIC50 of 4.40 to 5.00.
In the case of `CN(C(=O)c1cccc(N2CCc3c(C(=O)NCC4CC4)nn(-c4cccc(Cl)c4)c3C2=O)c1)C1CC1` [Example 1270, 1-(3-chlorophenyl)-6-(3-(cyclopropyl(methyl)carbamoyl)phenyl)-N-(cyclopropylmethyl)-7-oxo-4,5,6,7-tetrahydro-1H-pyrazolo[3,4-c]pyridine-3-carboxamide], the pIC50 was 4.40 to 5.00.
With `CN1CCc2ccc(N3CCc4c(C(=O)N5CCOCC5)nn(-c5cccc(Cl)c5)c4C3=O)cc2C1=O` [Example 1272, 7-(1-(3-chlorophenyl)-3-(morpholine-4-carbonyl)-7-oxo-1,4,5,7-tetrahydro-6H-pyrazolo[3,4-c]pyridin-6-yl)-2-methyl-3,4-dihydroisoquinolin-1(2H)-one] the pIC50 was 5.00 to 5.52.
For `CN(C)C(=O)c1ccnc(N2CCc3c(C(=O)NCC4CC4)nn(-c4cccc(Cl)c4)c3C2=O)c1` [Example 1273, 1-(3-chlorophenyl)-N-(cyclopropylmethyl)-6-(4-(dimethylcarbamoyl)pyridin-2-yl)-7-oxo-4,5,6,7-tetrahydro-1H-pyrazolo[3,4-c]pyridine-3-carboxamide], the pIC50 was 5.00 to 5.52.
`CN1CCc2ccc(N3CCc4c(C(=O)NC[C@H]5C[C@H](O)C5)nn(-c5cccc(Cl)c5)c4C3=O)cc2C1=O` [Example 1274, 1-(3-chlorophenyl)-N-(((1r,3r)-3-hydroxycyclobutyl)methyl)-6-(2-methyl-1-oxo-1,2,3,4-tetrahydroisoquinolin-7-yl)-7-oxo-4,5,6,7-tetrahydro-1H-pyrazolo[3,4-c]pyridine-3-carboxamide] showed a pIC50 of 6.00 to 6.52.
`Cc1cc(CNC(=O)c2nn(-c3cccc(Cl)c3)c3c2CCN(c2ccc4c(c2)N(C)C(=O)C4(C)C)C3=O)nn1C` [Example 1276, 1-(3-chlorophenyl)-N-((1,5-dimethyl-1H-pyrazol-3-yl)methyl)-7-oxo-6-(1,3,3-trimethyl-2-oxoindolin-6-yl)-4,5,6,7-tetrahydro-1H-pyrazolo[3,4-c]pyridine-3-carboxamide] showed a pIC50 of 5.00 to 5.52.
